From patent publication US10689367B2, “Triazole pyridyl compounds as agonists of the APJ receptor” (AMGEN INC., priority 2016, dated 2020)

Target: human APJ receptor (Homo sapiens (Human), UniProt P35414)
Assay: [35S]GTPγS binding assay on membranes from CHO cells stably expressing human APJ receptor
Type: biochemical
Conditions: membranes of CHO cells stably expressing human APJ receptor, read-out: Activity hAPJ SPA EC50 IP
Summary of the method: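 Agonist EC50 values come from non-linear regression of mean data from several independent runs. Membranes of CHO cells stably expressing human APJ were incubated 90 min at room temperature with [35S]GTPγS in buffer with optimized GDP, MgCl2 and NaCl, then read on a microplate imager.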

Chain of human APJ receptor (P35414 whole entry): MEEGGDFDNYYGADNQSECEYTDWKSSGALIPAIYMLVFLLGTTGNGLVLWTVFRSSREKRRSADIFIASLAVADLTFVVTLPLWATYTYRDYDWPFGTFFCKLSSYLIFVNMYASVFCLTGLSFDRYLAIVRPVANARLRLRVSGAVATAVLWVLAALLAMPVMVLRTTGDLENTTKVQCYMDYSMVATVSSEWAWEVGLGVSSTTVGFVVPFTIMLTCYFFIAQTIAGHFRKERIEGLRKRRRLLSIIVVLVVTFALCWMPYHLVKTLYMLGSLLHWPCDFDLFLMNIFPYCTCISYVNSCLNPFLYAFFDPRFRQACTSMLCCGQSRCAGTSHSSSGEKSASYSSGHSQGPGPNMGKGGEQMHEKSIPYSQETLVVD

SMILES | EC50 [nM]
COc1cccc(-c2nnc(NS(=O)(=O)[C@@H](C)[C@H](OC)c3ncc(Cl)cn3)n2Cc2cc(C)no2)n1 [Example 189.0, (1R,2S)-1-(5-chloropyrimidin-2-yl)-1-methoxy-N-(5-(6-methoxypyridin-2-yl)-4-((3-methylisoxazol-5-yl)methyl)-4H-1,2,4-triazol-3-yl)propane-2-sulfonamide] | 18
COc1cccc(-c2nnc(NS(=O)(=O)[C@@H](C)[C@H](C)c3ncc(Cl)cn3)n2Cc2cc(C)no2)n1 [Example 190.0, (2S,3R)-3-(5-chloropyrimidin-2-yl)-N-(5-(6-methoxypyridin-2-yl)-4((3-methylisoxazol-5-yl)methyl)-4H-1,2,4-triazol-3-yl)butane-2-sulfonamide] | 26
COc1cccc(-c2nnc(NS(=O)(=O)[C@@H](C)[C@H](OC)c3cnc(C)cn3)n2Cc2cc(C)no2)n1 [Example 191.0, (1R,2S)-1-methoxy-N-(5-(6-methoxypyridin-2-yl)-4-((3-methylisoxazol-5-yl)methyl)-4H-1,2,4-triazol-3-yl)-1-(5-methylpyrazin-2-yl)propane-2-sulfonamide] | 390
CCc1noc(C)c1Cn1c(NS(=O)(=O)[C@@H](C)[C@H](OC)c2ncc(Cl)cn2)nnc1-c1cccc(OC)n1 [Example 192.0, (1R,2S)-1-(5-chloro-2-pyrimidinyl)-N-(4-((3-ethyl-5-methyl-1,2-oxazol-4-yl)methyl)-5-(6-methoxy-2-pyridinyl)-4H-1,2,4-triazol-3-yl)-1-methoxy-2-propanesulfonamide] | 260
CCc1noc(C)c1Cn1c(NS(=O)(=O)[C@@H](C)[C@H](C)c2ncc(Cl)cn2)nnc1-c1cccc(OC)n1 [Example 193.0, (2S,3R)-3-(5-chloro-2-pyrimidinyl)-N-(4-((3-ethyl-5-methyl-1,2-oxazol-4-yl)methyl)-5-(6-methoxy-2-pyridinyl)-4H-1,2,4-triazol-3-yl)-2-butanesulfonamide] | 430
CCc1noc(C)c1Cn1c(NS(=O)(=O)[C@@H](C)[C@@H](OC(C)C)c2ncc(C)cn2)nnc1-c1cccc(OC)n1 [Example 194.0, (1S,2S)-N-(4-((3-ethyl-5-methyl-1,2-oxazol-4-yl)methyl)-5-(6-methoxy-2-pyridinyl)-4H-1,2,4-triazol-3-yl)-1-(5-methyl-2-pyrimidinyl)-1-(2-propanyloxy)-2-propanesulfonamide] | 56
CCc1noc(C)c1Cn1c(NS(=O)(=O)[C@@H](C)[C@H](OC)c2cnc(C)cn2)nnc1-c1cccc(OC)n1 [Example 195.0, (1R,2S)-N-(4-((3-ethyl-5-methylisoxazol-4-yl)methyl)-5-(6-methoxypyridin-2-yl)-4H-1,2,4-triazol-3-yl)-1-methoxy-1-(5-methylpyrazin-2-yl)propane-2-sulfonamide] | 650
CCc1cc(Cn2c(NS(=O)(=O)[C@@H](C)[C@H](C)c3ncc(Cl)cn3)nnc2-c2cccc(OC)n2)on1 [Example 196.0, (2S,3R)-3-(5-chloropyrimidin-2-yl)-N-(4-((3-ethylisoxazol-5-yl)methyl)-5-(6-methoxypyridin-2-yl)-4H-1,2,4-triazol-3-yl)butane-2-sulfonamide] | 4.8
COc1cc(Cn2c(NS(=O)(=O)[C@@H](C)[C@H](OC)c3ncc(Cl)cn3)nnc2-c2cccc(OC)n2)on1 [Example 197.0, (1R,2S)-1-(5-chloro-2-pyrimidinyl)-1-methoxy-N-(4-((3-methoxy-1,2-oxazol-5-yl)methyl)-5-(6-methoxy-2-pyridinyl)-4H-1,2,4-triazol-3-yl)-2-propanesulfonamide] | 12
COc1cc(Cn2c(NS(=O)(=O)[C@@H](C)[C@H](C)c3ncc(Cl)cn3)nnc2-c2cccc(OC)n2)on1 [Example 198.0, (2S,3R)-3-(5-chloro-2-pyrimidinyl)-N-(4-((3-methoxy-1,2-oxazol-5-yl)methyl)-5-(6-methoxy-2-pyridinyl)-4H-1,2,4-triazol-3-yl)-2-butanesulfonamide] | 24
COc1cc(Cn2c(NS(=O)(=O)[C@@H](C)[C@H](OC)c3cnc(C)cn3)nnc2-c2cccc(OC)n2)on1 [Example 199.0, (1R,2S)-1-methoxy-N-(4-((3-methoxy-1,2-oxazol-5-yl)methyl)-5-(6-methoxy-2-pyridinyl)-4H-1,2,4-triazol-3-yl)-1-(5-methyl-2-pyrazinyl)-2-propanesulfonamide] | 220
COc1cccc(-c2nnc(NS(=O)(=O)[C@@H](C)[C@H](OC)c3cnc(C)cn3)n2Cc2cc(C(F)(F)F)no2)n1 [Example 203.0, (1R,2S)-1-methoxy-N-(5-(6-methoxy-2-pyridinyl)-4-((3-(trifluoromethyl)-1,2-oxazol-5-yl)methyl)-4H-1,2,4-triazol-3-yl)-1-(5-methyl-2-pyrazinyl)-2-propanesulfonamide] | 56
COc1cccc(-c2nnc(NS(=O)(=O)[C@@H](C)[C@H](C)c3ncc(Cl)cn3)n2Cc2cc(C(F)(F)F)no2)n1 [Example 204.0, (2S,3R)-3-(5-chloro-2-pyrimidinyl)-N-(5-(6-methoxy-2-pyridinyl)-4-((3-(trifluoromethyl)-1,2-oxazol-5-yl)methyl)-4H-1,2,4-triazol-3-yl)-2-butanesulfonamide] | 21
COc1cccc(-c2nnc(NS(=O)(=O)[C@@H](C)[C@H](OC)c3ncc(Cl)cn3)n2Cc2cc(C(F)(F)F)no2)n1 [Example 205.0, (1R,2S)-1-(5-chloro-2-pyrimidinyl)-1-methoxy-N-(5-(6-methoxy-2-pyridinyl)-4-((3-(trifluoromethyl)-1,2-oxazol-5-yl)methyl)-4H-1,2,4-triazol-3-yl)-2-propanesulfonamide] | 4.5
COc1cccc(-c2nnc(NS(=O)(=O)[C@@H](C)[C@H](OC)c3cnc(C)cn3)n2Cc2ccno2)n1 [Example 206.0, (1R,2S)-1-methoxy-N-(5-(6-methoxy-2-pyridinyl)-4-(1,2-oxazol-5-ylmethyl)-4H-1,2,4-triazol-3-yl)-1-(5-methyl-2-pyrazinyl)-2-propanesulfonamide] | 210
COc1cccc(-c2nnc(NS(=O)(=O)[C@@H](C)[C@H](C)c3ncc(Cl)cn3)n2Cc2ccno2)n1 [Example 207.0, (2S,3R)-3-(5-chloro-2-pyrimidinyl)-N-(5-(6-methoxy-2-pyridinyl)-4-(1,2-oxazol-5-ylmethyl)-4H-1,2,4-triazol-3-yl)-2-butanesulfonamide] | 30
COc1cccc(-c2nnc(NS(=O)(=O)[C@@H](C)[C@H](C)c3ncc(Cl)cn3)n2Cc2ccon2)n1 [Example 260.0, (2S,3R)-3-(5-chloropyrimidin-2-yl)-N-(4-(isoxazol-3-ylmethyl)-5-(6-methoxypyridin-2-yl)-4H-1,2,4-triazol-3-yl)butane-2-sulfonamide] | 5.1
COc1cccc(-c2nnc(NS(=O)(=O)[C@@H](C)[C@@H](OC(C)C)c3ncc(C)cn3)n2Cc2ccon2)n1 [Example 261.0, (1S,2S)-1-isopropoxy-N-(4-(isoxazol-3-ylmethyl)-5-(6-methoxypyridin-2-yl)-4H-1,2,4-triazol-3-yl)-1-(5-methylpyrimidin-2-yl)propane-2-sulfonamide] | 5.2
CO[C@H](c1ncc(Cl)cn1)[C@H](C)S(=O)(=O)Nc1nnc(-c2cncc(C)c2)n1Cc1ccon1 [Example 262.0, (1R,2S)-1-(5-chloropyrimidin-2-yl)-N-(4-(isoxazol-3-ylmethyl)-5-(5-methylpyridin-3-yl)-4H-1,2,4-triazol-3-yl)-1-methoxypropane-2-sulfonamide] | 200
COc1cccc(-c2nnc(NS(=O)(=O)[C@@H](C)[C@H](OC)c3ncc(Cl)cn3)n2C23CC(C2)C3)n1 [Example 263.0, (1R,2S)—N-(4-(Bicyclo[1.1.1]pentan-1-yl)-5-(6-methoxypyridin-2-yl)-4H-1,2,4-triazol-3-yl)-1-(5-chloropyrimidin-2-yl)-1-methoxypropane-2-sulfonamide] | 49
COc1cccc(-c2nnc(NS(=O)(=O)[C@@H](C)[C@H](OC)c3ncc(Cl)cn3)n2Cc2ccno2)n1 [Example 266.0, (1R,2S)-1-(5-chloropyrimidin-2-yl)-N-(4-(isoxazol-5-ylmethyl)-5-(6-methoxypyridin-2-yl)-4H-1,2,4-triazol-3-yl)-1-methoxypropane-2-sulfonamide] | 9.6
COc1cccc(-c2nnc(NS(=O)(=O)[C@@H](C)[C@H](OC)c3ncc(Cl)cn3)n2Cc2cc(C)on2)n1 [Example 271.0, (1R,2S)-1-(5-chloropyrimidin-2-yl)-1-methoxy-N-(5-(6-methoxypyridin-2-yl)-4-((5-methylisoxazol-3-yl)methyl)-4H-1,2,4-triazol-3-yl)propane-2-sulfonamide] | 5.4
COc1cccc(-c2nnc(NS(=O)(=O)[C@@H](C)[C@H](C)c3ncc(Cl)cn3)n2Cc2cc(C)on2)n1 [Example 272.0, (2S,3R)-3-(5-chloropyrimidin-2-yl)-N-(5-(6-methoxypyridin-2-yl)-4-((5-methylisoxazol-3-yl)methyl)-4H-1,2,4-triazol-3-yl)butane-2-sulfonamide] | 12
COc1cccc(-c2nnc(NS(=O)(=O)[C@@H](C)[C@H](OC)c3ncc(Cl)cn3)n2CCc2ccccn2)n1 [Example 283.0, (1R,2S)-1-(5-chloropyrimidin-2-yl)-1-methoxy-N-(5-(6-methoxypyridin-2-yl)-4-(2-(pyridin-2-yl)ethyl)-4H-1,2,4-triazol-3-yl)propane-2-sulfonamide] | 69
COc1cccc(-c2nnc(NS(=O)(=O)[C@@H](C)[C@H](OC)c3ncc(Cl)cn3)n2CCc2cccnc2)n1 [Example 284.0, (1R,2S)-1-(5-chloropyrimidin-2-yl)-1-methoxy-N-(5-(6-methoxypyridin-2-yl)-4-(2-(pyridin-3-yl)ethyl)-4H-1,2,4-triazol-3-yl)propane-2-sulfonamide] | 120
COc1cccc(-c2nnc(NS(=O)(=O)[C@@H](C)[C@H](C)c3ncc(C)cn3)n2Cc2ccon2)n1 [Example 291.0, (2S,3R)-N-(4-(isoxazol-3-ylmethyl)-5-(6-methoxypyridin-2-yl)-4H-1,2,4-triazol-3-yl)-3-(5-methylpyrimidin-2-yl)butane-2-sulfonamide] | 35
